Experiments:
[1] = tested on: thioglycollate-induced peritoneal macrophages; assay: TNF induction from thioglycollate-induced peritoneal macrophages (ELISA and L929 cytotoxicity bioassay); format: cell-based, murine
Experimental: Serial dilutions of an extract of parasitized RBC which (undiluted) induced 435 ng/ml of TNF as determined by ELISA and 30,400 U/ml in the bioassay were incubated at pH 8.0 at 37° C. overnight with a series of concentrations of α-galactosidase from Sigma or from Oxford Glycosystems, boiled, neutralised and then tested on macrophages for TNF induction by bioassay and ELISA (means of duplicates). The amount of TNF that would have been induced by the original undiluted extract was then calculated.
(§1) (One of 2 experiments) (A) Rate of reaction of 0.04 U/ml of α-galactosidase at 37° C. with p-nitrophenyl-α-D-galactopyranoside as substrate as determined over the first 3 mins. (B) Malaria toxin from P. yoelii diluted 1/10 and (C) 50 ng/ml of LPS were incubated overnight at 37° C. with 2 U/ml of α-galactosidase,then boiled and tested on macrophages for TNF induction, assayed by ELISA. (Means of duplicates).
Mice bred at University College London ((CBA×Balb/c)F1 or CBA×C57B1) F1) were infected with P. yoelii YM or P. berghei ANKA. Parasitized RBC (1×10^8/ml)in Earle's Balanced Salt Solution (BSS; Life Technologies Ltd, Paisley, U.K.) were incubated at 37° C. overnight, then disrupted by freezing and thawing, digested overnight with 250 μg pronase E (Sigma) per mg of protein (determined by BioRad assay), boiled, treated with 25 μg/ml polymyxin B agarose (Sigma) to eliminate endotoxin, filtered through a 0.2-μm filter (Sartorius AG, Gottingen, Germany) and stored at 4° C. (24). TNF induction from thioglycollate-induced peritoneal macrophages and ELISA assays for murine TNF were described previously (24). Polymyxin B (5 μg/ml) was included in all experiments with malaria toxin to exclude effects from contaminating LPS. A more sensitive one-plate procedure for TNF production and assay was also used (5). Cytotoxicity assays for TNF were done using L929 cells (23). Green coffee bean α-D-galactosidase was obtained from 2 sources (Sigma, Poole, Dorset, UK and Oxford GlycoSystems Ltd, Abingdon, Oxford UK).

[2] = β-galactosidase activity against βPNP-Gal; format: biochemical; conditions: pH 6.0; α-galactosidase preparations
From the text: This was supported by the observation of batch to batch variability and the fact that the stability of the TNF-enhancing activity differed from the αPNP-Gal activity. Although all enzyme preparations were first dialysed and adjusted to the same activity against αPNP-Gal, batches from different sources enhanced to different degrees (as illustrated in FIG. 1). […] Apart from BSA, all preparations contained 3 bands of 33 kD, 29 kD and 27 kD; 28 kD and 36.5 kD isoforms were previously described (4).

[3] = α-galactosidase hydrolysis of p-nitrophenyl-α-D-galactopyranoside (αPNP-Gal); format: biochemical
Experimental: as §1
The α-galactosidase hydrolysis of p-nitrophenyl-α-D-galactopyranoside (αPNP-Gal) is optimal at pH 6.0 (4, 9) and undetectable at pH 8.0 (9), as we confirmed, but enhancement of TNF-induction by malaria toxin was greatest at pH 8.0 (FIG. 2.). […] The degree of enhancement also varied with the concentration of LPS, and at higher concentrations enhancement was also detectable at pH 6.0.

α-galactosidase: Green coffee bean α-D-galactosidase obtained from Sigma and Oxford GlycoSystems
TNF secretion of macrophages pre-treated with enzyme, then stimulated with toxin or LPS ([1]; 2 U/ml enzyme for 1 hr at 37° C., then toxin or 2 or 10 ng/ml LPS): did not secrete more TNF than untreated cells
TNF induction from macrophages incubated with enzyme only ([1]; 2 U/ml enzyme only): No TNF was induced
increase in potency of LPS in stimulating the release of TNFα from macrophages ([1]; bacterial derived LPS treated with the enzyme): 10-100 fold
enhancement of TNF induction with boiled enzyme ([1]; boiled enzyme): no enhancement occurred
enhancement of TNF induction by malaria toxin (extracts of infected RBC) pre-treated with enzyme ([1]; extracts of RBC infected with P. yoelii or P. berghei): Significant increase in TNF-induction
pH of greatest enhancement of TNF-induction by malaria toxin ([1]; overnight at 37° C. with 2 U/ml enzyme): 8.0 pH
enhancement of TNF-inducing activity of LPS ([1]; similar pH profile to the toxin): also enhanced
stability of TNF-enhancing capacity on storage ([1]; storage at 4° C.): deteriorated
β-galactosidase activity against βPNP-Gal [2]: No β-galactosidase activity was detectable
pH optimum of hydrolysis of αPNP-Gal [3]: 6.0 pH
hydrolysis of αPNP-Gal at pH 8.0 ([3]; pH 8.0): undetectable

From patent publication US5981494A, “Use of glycosidase inhibitors” (University College London, priority 1997, dated 1999)
